Results on 12 molecules are retold here after US8426408B2, “Pyrimidine inhibitors of kinases” (AbbVie Inc., priority 2009, dated 2013).

Common to all, as to format: biochemical
One test has as its target T1, Aurora A (Homo sapiens, UniProt O14965).
T1 sequence (O14965 1-403): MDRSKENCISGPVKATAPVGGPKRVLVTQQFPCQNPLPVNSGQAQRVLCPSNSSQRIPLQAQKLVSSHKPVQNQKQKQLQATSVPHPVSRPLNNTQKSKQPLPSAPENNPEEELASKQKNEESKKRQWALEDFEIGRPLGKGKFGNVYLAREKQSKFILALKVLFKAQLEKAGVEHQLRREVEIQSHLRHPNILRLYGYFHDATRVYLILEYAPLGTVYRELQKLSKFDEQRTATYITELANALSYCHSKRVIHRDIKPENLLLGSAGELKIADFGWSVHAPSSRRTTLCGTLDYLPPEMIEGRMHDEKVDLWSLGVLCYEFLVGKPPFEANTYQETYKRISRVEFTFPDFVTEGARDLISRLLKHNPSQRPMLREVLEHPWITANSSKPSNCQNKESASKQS
Put plainly: Aurora A enzyme inhibition (time-resolved fluorescence, STK substrate-2). The note with it: 1 mM ATP. As for the experimental part:
To determine Aurora A and C activity of representative compounds of the invention, Active Aurora A or C enzyme was incubated in wells of a 384 well plate with biotinylated STK substrate-2 (Upstate), 1 mM ATP, and various concentrations of inhibitors in a Hepes buffer, pH 7.4 containing MgCl2, sodium othrovanadate, and Triton X-100. After 1 hour, the reaction was stopped with EDTA and anti-phospho-STK antibody Europium Cryptate (Upstate) and SA-XL665 (Upstate) were added to detect the phosphopeptide. The amount of phosphorylation was determined by the time-resolved fluorescence ratio of signals at 665 nm and 615 nm. The IC50s were calculated by an exponential fit of the inhibition values with the inhibitor concentrations using Assay Explorer software.

For another test, the target named is KDR (Homo sapiens, UniProt P35968). The test can be described thus: KDR HTRF in vitro kinase assay. Also noted: purified enzyme (His6-KDR 789-1354, MW 63 kD); His6 (N). The note with it: 1 mM ATP; read-out: KDR enzyme inhibition data (Ki). As for the experimental part:
To determine the activity of the various kinases, a homogenous time-resolved fluorescence (HTRF) in vitro kinase assay was used. (Mathis, G., HTRF® Technology. J Biomol Screen, 1999. 4(6): p. 309-314; Alfred J. Kolb, Paul V. Kaplita, David J. Hayes, Young-Whan Park, Christine Pernell, John S. Major and Gerard Mathis, Drug Discovery Today, 1998, 3, 333-342.)
For example for KDR, 7 ng/well of purified enzyme (His6-KDR 789-1354, MW 63 kD) was mixed with 0.5 μM N-biotinylated substrate (Biotin-Ahx-AEEEYFFLA-amide (SEQ. ID. 1)), various concentrations of inhibitor in reaction buffer (50 mM HEPES, pH 7.1, 10 mM MgCl2, 2 mM MnCl2, 0.1% BSA and 1 mM DTT, 40 L final volume), ATP (1 mM final conc.) in a black 384-well plate. After 60 minutes incubation at room temperature, the reaction was quenched by addition of a buffered EDTA solution (final approximate concentrations: 30 mM EDTA, 0.1% BSA, 0.1% Triton X-100 and 0.24M KF) and a solution of revelation agents (to give 0.084 ng/well streptavidin-XL-665 (Cis-Bio) and 6.5 ng/well antiphsophotyrosine mAb PT66-K Europium kryptate) was added to the reaction mixture. The quenched reaction was allowed to stand at room temperature for 3 hours and was then read in a time-resolved fluorescence detector (InVision, Perkin-Elmer) at 620 nm and 665 nm sequentially with excitation. The ratio between the signal of 620 nm and 665 nm was used in the calculation of the IC50.
In general terms: TR-FRET usually uses a lanthanide donor and a delayed reading to cut background.

The next test concerns the target T2, Aurora B (Homo sapiens, UniProt Q96GD4).
T2 construct: Active Aurora B enzyme (recombinant residues 1-344)
The test can be described thus: Aurora B enzyme inhibition (time-resolved fluorescence, histone H3 peptide). The note with it: 1 mM ATP. The protocol:
To determine Aurora B activity of representative compounds of the invention, Active Aurora B enzyme (recombinant residues 1-344) and INCENP (recombinant GST fusion protein (Upstate)) were incubated in wells of a 384 well plate with biotinylated histone H3 peptide residues 1-21 (Upstate), 1 mM ATP, and various concentrations of inhibitors in a HEPES buffer, pH 7.4 containing MgCl2, sodium othrovanadate, and Triton X-100. After 1 hour, the reaction was stopped with EDTA and anti-phospho-histone H3 Europium Cryptate (Cis-Bio) and SA-APC (Phycolink, Prozyme) were added to detect the phosphopeptide. The amount of phosphorylation was determined by the time-resolved fluorescence ratio of signals at 665 nm and 615 nm. The IC50's were calculated by an exponential fit of the inhibition values with the inhibitor concentrations using Assay Explorer software.

Some results are limits rather than exact numbers.

KDR, sequence (P35968 789-1354): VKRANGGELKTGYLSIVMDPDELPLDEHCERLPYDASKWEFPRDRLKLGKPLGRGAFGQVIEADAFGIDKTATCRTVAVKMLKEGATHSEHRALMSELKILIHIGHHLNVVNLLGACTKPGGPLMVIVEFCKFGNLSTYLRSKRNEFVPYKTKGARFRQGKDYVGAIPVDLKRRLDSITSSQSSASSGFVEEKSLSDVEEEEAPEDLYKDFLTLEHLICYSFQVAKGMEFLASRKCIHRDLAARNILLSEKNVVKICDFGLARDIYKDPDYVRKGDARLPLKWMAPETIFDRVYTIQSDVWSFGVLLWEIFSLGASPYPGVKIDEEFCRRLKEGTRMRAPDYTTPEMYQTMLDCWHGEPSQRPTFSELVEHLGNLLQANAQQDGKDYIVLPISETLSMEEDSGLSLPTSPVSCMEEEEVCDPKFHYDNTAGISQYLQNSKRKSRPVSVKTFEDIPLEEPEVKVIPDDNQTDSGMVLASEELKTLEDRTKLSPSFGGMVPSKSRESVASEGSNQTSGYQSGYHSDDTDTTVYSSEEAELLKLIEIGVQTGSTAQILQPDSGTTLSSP
T2 sequence (Q96GD4 whole entry, the tested form may be a part): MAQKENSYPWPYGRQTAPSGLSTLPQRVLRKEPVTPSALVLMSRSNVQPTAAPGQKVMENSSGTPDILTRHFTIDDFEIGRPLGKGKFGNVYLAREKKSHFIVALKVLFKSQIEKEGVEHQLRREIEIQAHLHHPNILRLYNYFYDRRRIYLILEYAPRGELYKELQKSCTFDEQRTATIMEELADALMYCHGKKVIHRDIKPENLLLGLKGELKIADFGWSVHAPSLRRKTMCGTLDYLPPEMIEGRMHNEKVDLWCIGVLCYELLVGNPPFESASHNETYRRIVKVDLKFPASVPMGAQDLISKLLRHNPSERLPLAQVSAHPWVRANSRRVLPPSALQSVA
T2 sequence (Q9NQS7 826-918 partner limits assumed): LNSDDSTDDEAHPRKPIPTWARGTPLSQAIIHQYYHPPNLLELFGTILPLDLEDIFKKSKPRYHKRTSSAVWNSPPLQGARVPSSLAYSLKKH

Take `NC(=O)[C@@H]1[C@H](Nc2nc(Nc3cnn(CC(F)(F)F)c3)ncc2C(F)(F)F)[C@H]2C=C[C@@H]1C2` [Example 64, (1S,2S,3R,4R)-3-{[2-{[1-(2,2,2-trifluoroethyl)-1H-pyrazol-4-yl]amino}-5-(trifluoromethyl)pyrimidin-4-yl]amino}bicyclo[2.2.1]hept-5-ene-2-carboxamide]: the Ki at Aurora A, at KDR and on Aurora B was less than 100 nM each time.
As for `Cn1cc(Nc2ncc(F)c(N[C@@H]3C[C@H]4CC[C@@H]3C4)n2)cn1.Cn1cc(Nc2ncc(F)c(N[C@H]3C[C@@H]4CC[C@H]3C4)n2)cn1` (mixture of isomers) [Example 3, N^4-[(1S,2S,4R)-bicyclo[2.2.1]hept-2-yl]-5-fluoro-N^2-(1-methyl-1H-pyrazol-4-yl)pyrimidine-2,4-diamine and N^4-[(1R,2R,4S)-bicyclo[2.2.1]hept-2-yl]-5-fluoro-N^2-(1-methyl-1H-pyrazol-4-yl)pyrimidine-2,4-diamine], the Ki fell in the range of 1000 to 5000 nM on Aurora A, 1000 to 5000 nM on KDR and 100 to 1000 nM at Aurora B.
Turning to `Cn1cc(Nc2ncc(F)c(N[C@@H]3CCC[C@@H]3C(N)=O)n2)cn1.Cn1cc(Nc2ncc(F)c(N[C@H]3CCC[C@H]3C(N)=O)n2)cn1` (mixture of isomers) [Example 4, (1S,2R)-2-({5-fluoro-2-[(1-methyl-1H-pyrazol-4-yl)amino]pyrimidin-4-yl}amino)cyclopentanecarboxamide and (1R,2S)-2-({5-fluoro-2-[(1-methyl-1H-pyrazol-4-yl)amino]pyrimidin-4-yl}amino)cyclopentanecarboxamide], the Ki on Aurora A is more than 5000 nM; at KDR, more than 5000 nM; at Aurora B it was 100 to 1000 nM.
In the case of `COc1cnc(Nc2cnn(C)c2)nc1NC1C2C=CC(C2)C1C(N)=O` (mixture of isomers) [Example 52, (1S,2S,3R,4R)-3-({5-methoxy-2-[(1-methyl-1H-pyrazol-4-yl)amino]pyrimidin-4-yl}amino)bicyclo[2.2.1]hept-5-ene-2-carboxamide and (1R,2R,3S,4S)-3-({5-methoxy-2-[(1-methyl-1H-pyrazol-4-yl)amino]pyrimidin-4-yl}amino)bicyclo[2.2.1]hept-5-ene-2-carboxamide], the Ki at Aurora A, on KDR and on Aurora B was less than 100 nM each time.
Regarding `CCn1cc(Nc2ncc(C(F)(F)F)c(N[C@H]3[C@@H](C(N)=O)[C@@H]4C=C[C@H]3C4)n2)cn1` [Example 62, (1S,2S,3R,4R)-3-{[2-[(1-ethyl-1H-pyrazol-4-yl)amino]-5-(trifluoromethyl)pyrimidin-4-yl]amino}bicyclo[2.2.1]hept-5-ene-2-carboxamide], the inhibition constant Ki on Aurora A, on KDR and at Aurora B was less than 100 nM each time.
`NC(=O)[C@@H]1[C@H](Nc2nc(Nc3cnn([C@@H]4CCNC4)c3)ncc2Cl)[C@H]2C=C[C@@H]1C2` [Example 73, (1S,2S,3R,4R)-3-{[5-chloro-2-({1-[(3R)-pyrrolidin-3-yl]-1H-pyrazol-4-yl}amino)pyrimidin-4-yl]amino}bicyclo[2.2.1]hept-5-ene-2-carboxamide]: the Ki at Aurora A, on KDR and at Aurora B was less than 100 nM each time.
For `CC(=O)NCC(=O)N1CCC(n2cc(Nc3ncc(Cl)c(N[C@H]4[C@@H](C(N)=O)[C@@H]5C=C[C@H]4C5)n3)cn2)CC1` [Example 85, (1S,2S,3R,4R)-3-{[2-({1-[1-(N-acetylglycyl)piperidin-4-yl]-1H-pyrazol-4-yl}amino)-5-chloropyrimidin-4-yl]amino}bicyclo[2.2.1]hept-5-ene-2-carboxamide], the Ki at Aurora A, at KDR and on Aurora B was less than 100 nM each time.
Regarding `CCn1cc(Nc2ncc(Br)c(N[C@@H]3[C@H](C(=O)NC)[C@H]4C=C[C@@H]3C4)n2)cn1.CCn1cc(Nc2ncc(Br)c(N[C@H]3[C@@H](C(=O)NC)[C@@H]4C=C[C@H]3C4)n2)cn1` (mixture of isomers) [Example 49, (1S,2S,3R,4R)-3-({5-bromo-2-[(1-ethyl-1H-pyrazol-4-yl)amino]pyrimidin-4-yl}amino)-N-methylbicyclo[2.2.1]hept-5-ene-2-carboxamide and (1R,2R,3S,4S)-3-({5-bromo-2-[(1-ethyl-1H-pyrazol-4-yl)amino]pyrimidin-4-yl}amino)-N-methylbicyclo[2.2.1]hept-5-ene-2-carboxamide], the Ki on Aurora A, at KDR and at Aurora B was less than 100 nM throughout.
As for `Cn1cc(Nc2ncc(Cl)c(N[C@@H]3CCC[C@@H]3C(N)=O)n2)cn1.Cn1cc(Nc2ncc(Cl)c(N[C@H]3CCC[C@H]3C(N)=O)n2)cn1` (mixture of isomers) [Example 43, (1S,2R)-2-({5-chloro-2-[(1-methyl-1H-pyrazol-4-yl)amino]pyrimidin-4-yl}amino)cyclopentanecarboxamide and (1R,2S)-2-({5-chloro-2-[(1-methyl-1H-pyrazol-4-yl)amino]pyrimidin-4-yl}amino)cyclopentanecarboxamide], the Ki on Aurora A, at KDR and on Aurora B was less than 100 nM throughout.
As to `NC(=O)[C@@H]1[C@H](Nc2nc(Nc3cnn(CCN4CCCC4)c3)ncc2F)[C@H]2C=C[C@@H]1C2.NC(=O)[C@H]1[C@@H](Nc2nc(Nc3cnn(CCN4CCCC4)c3)ncc2F)[C@@H]2C=C[C@H]1C2` (mixture of isomers) [Example 45, (1S,2S,3R,4R)-3-[(5-fluoro-2-{[1-(2-pyrrolidin-1-ylethyl)-1H-pyrazol-4-yl]amino}pyrimidin-4-yl)amino]bicyclo[2.2.1]hept-5-ene-2-carboxamide and (1R,2R,3S,4S)-3-[(5-fluoro-2-{[1-(2-pyrrolidin-1-ylethyl)-1H-pyrazol-4-yl]amino}pyrimidin-4-yl)amino]bicyclo[2.2.1]hept-5-ene-2-carboxamide], the Ki at Aurora A, at KDR and on Aurora B was less than 100 nM in each case.
As to `CN(C)C(=O)Cn1cc(Nc2ncc(Cl)c(N[C@@H]3[C@H](C(N)=O)[C@H]4C=C[C@@H]3C4)n2)cn1.CN(C)C(=O)Cn1cc(Nc2ncc(Cl)c(N[C@H]3[C@@H](C(N)=O)[C@@H]4C=C[C@H]3C4)n2)cn1` (mixture of isomers) [Example 54, (1S,2S,3R,4R)-3-{[5-chloro-2-({1-[2-(dimethylamino)-2-oxoethyl]-1H-pyrazol-4-yl}amino)pyrimidin-4-yl]amino}bicyclo[2.2.1]hept-5-ene-2-carboxamide and (1R,2R,3S,4S)-3-{[5-chloro-2-({1-[2-(dimethylamino)-2-oxoethyl]-1H-pyrazol-4-yl}amino)pyrimidin-4-yl]amino}bicyclo[2.2.1]hept-5-ene-2-carboxamide], the Ki on Aurora A, at KDR and at Aurora B was less than 100 nM in each case.
As for `NC(=O)[C@@H]1[C@H](Nc2nc(Nc3cnn([C@@H]4CCCNC4)c3)ncc2Cl)[C@H]2C=C[C@@H]1C2` [Example 84, (1S,2S,3R,4R)-3-{[5-chloro-2-({1-[(3R)-piperidin-3-yl]-1H-pyrazol-4-yl}amino)pyrimidin-4-yl]amino}bicyclo[2.2.1]hept-5-ene-2-carboxamide], the Ki on Aurora A, at KDR and at Aurora B was less than 100 nM each time.

One may read the Ki as the dissociation constant of the complex between target and ligand, obtained from inhibition or displacement.
